Measured values from US8883745B2, “C—glycolipids with enhanced Th-1 profile” (New York University, priority 2006, dated 2014).

Assays:
Type in all cases: in vivo
[1] = system: IL-4; test: IL-4 levels in sera upon i.v. glycolipid administration to C57BL/6 mice (ELISA); set-up: unit not given here
Method: (§1) Five- to six-week-old female C57BL/6 mice and BALB/c mice were purchased from Taconic. Each glycolipid was stored at 1 mg/ml in 100% DMSO. Mice were injected intravenously with 1 μg of each glyocolipid diluted in 200 μL sterile phosphate buffered saline (PBS). At indicated time points, sera were collected from each animal, and concentrations of IFN-γ, IL-4, and IL-12 in the sera were evaluated by enzyme-linked immunosorbent assay (ELISA). Serum concentrations of IFN-γ, IL-4, and IL-12 were evaluated using an ELISA kit (eBioscience, San Diego, Calif.). Briefly, 96 well flat-bottom ELISA plates (NUNC) were coated with capture antibody according to the manufacture's recommendation and incubated overnight at 4° C. The plates were washed with PBS+0.05% Tween 20 (PBS-T), then incubated with manufacturer provided blocking solution for 1 hr at room temperature to block non-specific binding sites. After washing with PBS-T, sera diluted 1:10 was added to the wells and incubated for 2 hrs at room temperature. Plates were then incubated at room temperature for 1 hr with biotintylated detection antibody, washed, incubated with avidin conjugated to horse radish peroxidase (HRP) for 30 min at room temperature, washed, and finally incubated with tetramethylbenzidine substrate solution in the dark for 10 minutes at room temperature. The antibodies, avidin-HRP, and substrate solution were all diluted according to the manufacture's recommendation. Reactions were stopped with 2.0N sulfuric acid and the cytokine concentration in each well was determined by comparing the absorbance at 450 nm in each well to known standards. The levels of Th1- and Th2-type cytokines were determined in two different genetic backgrounds, i.e., in C57BL/6 mice and BALB/c mice. The following compounds were administered: A=compound (A-1 trans-conformer), B=compound (A-2), C=compound (A-3), D=compound (A-4), E=compound (A-5), Z=control (PBS alone), CRONY=α-C-GalCer, KRN=α-GalCer, GCK109 (A-1 trans-conformer), GCK151 (A-1 cis-conformer), GCK152 (A-7). The levels of cytokines were measured at 0, 2, 6, 12, 24, 48, and 72 hours after the compound administration. The levels of Th1-type cytokines IFN-γ and IL-12 are summarized in FIGS. 2A-C and 3A-C, respectively. Table 7 provides IFN-γ/IL-4 and IL-12/IL-4 ratios for various compounds, which can be used as indicators of their ability to selectively stimulate Th1-type immune responses.

[2] = system: IFN-γ; test: IFN-γ levels in sera upon i.v. glycolipid administration to C57BL/6 mice (ELISA); set-up: IFN-γ levels, test 1 / IFN-γ levels, test 2 / IFN-γ levels, average / IFN-γ levels, Total / IFN-γ (B6): unit not given here
Method: as §1

[3] = system: IL-4; test: IL-4 levels in sera upon i.v. glycolipid administration to BALB/c mice (ELISA); set-up: unit not given here
Method: as §1

[4] = system: IL-12; test: IL-12 levels in sera upon i.v. glycolipid administration to BALB/c mice (ELISA); set-up: IL-12 levels, test 1 / IL-12 levels, test 2 / IL-12 levels, average / IL-12 levels, Total: unit not given here
Method: as §1

Q: Which “IL-4 level, average” value ([1]; hour 0) does the source give for `CCCCCCCCCCCCCCCCCC/C=C/CCCCCCCCC(=O)N[C@@H](/C=C/[C@H]1O[C@H](CO)[C@H](O)[C@H](O)[C@H]1O)[C@H](O)[C@H](O)CCCCCCCCCCCCCC` [A-1] here?
A: Its value is 46.

Q: What about the “IL-4 level, test 1” value ([1]; hour 0) of the same molecule?
A: Its value is 46.

Q: What about the “IL-4 level, test 2” value ([1]; hour 0) of the same molecule?
A: The value was 46.

Q: And the “IL-4 level, average” value ([1]; hour 2)?
A: Its value is 1088.

Q: And the “IL-4 level, test 1” value ([1]; hour 2)?
A: Its value is 914.

Q: What about the “IL-4 level, test 2” value ([1]; hour 2) of the same molecule?
A: Its value is 1262.

Q: And the “IL-4 level, average” value ([1]; hour 6)?
A: Its value is 109.

Q: And the “IL-4 level, test 1” value ([1]; hour 6)?
A: The value was 90.

Q: What about the “IL-4 level, test 2” value ([1]; hour 6) of the same molecule?
A: Its value is 128.

Q: And the “IL-4 level, average” value ([1]; hour 12)?
A: The value was 55.

Q: And the “IL-4 level, test 1” value ([1]; hour 12)?
A: The value was 44.

Q: What about the “IL-4 level, test 2” value ([1]; hour 12) of the same molecule?
A: Its value is 66.

Q: And the “IL-4 level, average” value ([1]; hour 24)?
A: Its value is 56.5.

Q: And the “IL-4 level, test 1” value ([1]; hour 24)?
A: Its value is 57.

Q: And the “IL-4 level, test 2” value ([1]; hour 24)?
A: The value was 56.

Q: What about the “IL-4 level, average” value ([1]; hour 48) of the same molecule?
A: Its value is 44.

Q: What about the “IL-4 level, test 1” value ([1]; hour 48) of the same molecule?
A: Its value is 47.

Q: What about the “IL-4 level, test 2” value ([1]; hour 48) of the same molecule?
A: Its value is 41.

Q: What about the “IL-4 level, average” value ([1]; hour 72) of the same molecule?
A: The value was 88.

Q: What about the “IL-4 level, test 1” value ([1]; hour 72) of the same molecule?
A: Its value is 61.

Q: And the “IL-4 level, test 2” value ([1]; hour 72)?
A: The value was 115.

Q: What about the “IL-4 level, Total” value ([1]; total over hours 0-72) of the same molecule?
A: The value was 1487.

Q: And the “IFN-γ/IL-4 (B6)” value ([2]; C57BL/6, ratio calculated from Tables 1-6)?
A: The value was 12.

Q: What about the “IFN-γ levels, average” value ([2]; C57BL/6, serum, hour 0) of the same molecule?
A: Its value is 31.

Q: And the “IFN-γ levels, test 1” value ([2]; C57BL/6, serum, hour 0)?
A: Its value is 31.

Q: What about the “IFN-γ levels, test 2” value ([2]; C57BL/6, serum, hour 0) of the same molecule?
A: The value was 31.

Q: What about the “IFN-γ levels, average” value ([2]; C57BL/6, serum, hour 2) of the same molecule?
A: Its value is 281.

Q: What about the “IFN-γ levels, test 1” value ([2]; C57BL/6, serum, hour 2) of the same molecule?
A: Its value is 226.

Q: What about the “IFN-γ levels, test 2” value ([2]; C57BL/6, serum, hour 2) of the same molecule?
A: The value was 336.

Q: What about the “IFN-γ levels, average” value ([2]; C57BL/6, serum, hour 6) of the same molecule?
A: The value was 1147.5.

Q: And the “IFN-γ levels, test 1” value ([2]; C57BL/6, serum, hour 6)?
A: Its value is 1172.

Q: And the “IFN-γ levels, test 2” value ([2]; C57BL/6, serum, hour 6)?
A: Its value is 1123.

Q: What about the “IFN-γ levels, average” value ([2]; C57BL/6, serum, hour 12) of the same molecule?
A: Its value is 4323.

Q: What about the “IFN-γ levels, test 1” value ([2]; C57BL/6, serum, hour 12) of the same molecule?
A: The value was 4093.

Q: And the “IFN-γ levels, test 2” value ([2]; C57BL/6, serum, hour 12)?
A: Its value is 4553.

Q: What about the “IFN-γ levels, average” value ([2]; C57BL/6, serum, hour 24) of the same molecule?
A: The value was 11150.

Q: What about the “IFN-γ levels, test 1” value ([2]; C57BL/6, serum, hour 24) of the same molecule?
A: Its value is 10000.

Q: What about the “IFN-γ levels, test 2” value ([2]; C57BL/6, serum, hour 24) of the same molecule?
A: Its value is 12300.

Q: What about the “IFN-γ levels, average” value ([2]; C57BL/6, serum, hour 48) of the same molecule?
A: Its value is 400.5.

Q: And the “IFN-γ levels, test 1” value ([2]; C57BL/6, serum, hour 48)?
A: Its value is 366.

Q: What about the “IFN-γ levels, test 2” value ([2]; C57BL/6, serum, hour 48) of the same molecule?
A: The value was 435.

Q: What about the “IFN-γ levels, average” value ([2]; C57BL/6, serum, hour 72) of the same molecule?
A: The value was 151.

Q: And the “IFN-γ levels, test 1” value ([2]; C57BL/6, serum, hour 72)?
A: The value was 124.

Q: What about the “IFN-γ levels, test 2” value ([2]; C57BL/6, serum, hour 72) of the same molecule?
A: The value was 178.

Q: What about the “IFN-γ levels, Total” value ([2]; C57BL/6, serum, total over hours 0-72) of the same molecule?
A: Its value is 17485.

Q: And the “IL-4 level, average” value ([3]; hour 0)?
A: The value was 27.

Q: What about the “IL-4 level, test 1” value ([3]; hour 0) of the same molecule?
A: Its value is 27.

Q: And the “IL-4 level, test 2” value ([3]; hour 0)?
A: The value was 27.

Q: And the “IL-4 level, average” value ([3]; hour 2)?
A: The value was 431.5.

Q: And the “IL-4 level, test 1” value ([3]; hour 2)?
A: Its value is 358.

Q: And the “IL-4 level, test 2” value ([3]; hour 2)?
A: Its value is 505.

Q: What about the “IL-4 level, average” value ([3]; hour 6) of the same molecule?
A: Its value is 95.5.

Q: What about the “IL-4 level, test 1” value ([3]; hour 6) of the same molecule?
A: The value was 85.

Q: What about the “IL-4 level, test 2” value ([3]; hour 6) of the same molecule?
A: Its value is 106.

Q: What about the “IL-4 level, average” value ([3]; hour 12) of the same molecule?
A: The value was 51.

Q: And the “IL-4 level, test 1” value ([3]; hour 12)?
A: Its value is 52.

Q: And the “IL-4 level, test 2” value ([3]; hour 12)?
A: Its value is 50.

Q: What about the “IL-4 level, average” value ([3]; hour 24) of the same molecule?
A: Its value is 41.5.

Q: What about the “IL-4 level, test 1” value ([3]; hour 24) of the same molecule?
A: Its value is 40.

Q: What about the “IL-4 level, test 2” value ([3]; hour 24) of the same molecule?
A: Its value is 43.

Q: What about the “IL-4 level, average” value ([3]; hour 48) of the same molecule?
A: The value was 44.

Q: What about the “IL-4 level, test 1” value ([3]; hour 48) of the same molecule?
A: The value was 46.

Q: And the “IL-4 level, test 2” value ([3]; hour 48)?
A: Its value is 42.

Q: What about the “IL-4 level, average” value ([3]; hour 72) of the same molecule?
A: Its value is 4.

Q: What about the “IL-4 level, test 1” value ([3]; hour 72) of the same molecule?
A: The value was 4.

Q: And the “IL-4 level, test 2” value ([3]; hour 72)?
A: The value was 4.

Q: What about the “IL-4 level, Total” value ([3]; total over hours 0-72) of the same molecule?
A: Its value is 696.

Q: And the “IL-12/IL-4 (BALB/c)” value ([4]; ratio calculated from Tables 1-6)?
A: The value was 21.

Q: What about the “IL-12 levels, average” value ([4]; serum, hour 0) of the same molecule?
A: The value was 5.

Q: And the “IL-12 levels, test 1” value ([4]; serum, hour 0)?
A: Its value is 5.

Q: And the “IL-12 levels, test 2” value ([4]; serum, hour 0)?
A: Its value is 5.

Q: What about the “IL-12 levels, average” value ([4]; serum, hour 2) of the same molecule?
A: The value was 119.5.

Q: And the “IL-12 levels, test 1” value ([4]; serum, hour 2)?
A: The value was 0.

Q: What about the “IL-12 levels, test 2” value ([4]; serum, hour 2) of the same molecule?
A: Its value is 239.

Q: And the “IL-12 levels, average” value ([4]; serum, hour 6)?
A: The value was 6981.

Q: What about the “IL-12 levels, test 1” value ([4]; serum, hour 6) of the same molecule?
A: Its value is 7064.

Q: And the “IL-12 levels, test 2” value ([4]; serum, hour 6)?
A: Its value is 6898.

Q: What about the “IL-12 levels, average” value ([4]; serum, hour 12) of the same molecule?
A: The value was 7001.

Q: And the “IL-12 levels, test 1” value ([4]; serum, hour 12)?
A: The value was 7513.

Q: And the “IL-12 levels, test 2” value ([4]; serum, hour 12)?
A: Its value is 6489.

Q: And the “IL-12 levels, average” value ([4]; serum, hour 24)?
A: Its value is 306.

Q: And the “IL-12 levels, test 1” value ([4]; serum, hour 24)?
A: The value was 299.

Q: And the “IL-12 levels, test 2” value ([4]; serum, hour 24)?
A: Its value is 313.

Q: What about the “IL-12 levels, average” value ([4]; serum, hour 48) of the same molecule?
A: The value was 0.

Q: What about the “IL-12 levels, test 1” value ([4]; serum, hour 48) of the same molecule?
A: The value was 0.

Q: What about the “IL-12 levels, test 2” value ([4]; serum, hour 48) of the same molecule?
A: Its value is 0.

Q: What about the “IL-12 levels, average” value ([4]; serum, hour 72) of the same molecule?
A: The value was 48.5.

Q: And the “IL-12 levels, test 1” value ([4]; serum, hour 72)?
A: Its value is 0.

Q: And the “IL-12 levels, test 2” value ([4]; serum, hour 72)?
A: The value was 97.

Q: And the “IL-12 levels, Total” value ([4]; serum, total over hours 0-72)?
A: Its value is 14462.
